Measured values from US11793782B2, “Therapeutic agents for neurodegenerative diseases” (priority 2017, dated 2023).

Tests used:
[1] = test system: patients with Niemann-Pick Type C (NPC); details: Bremova et al. (2015); cited from earlier work
[2] = test system: fibroblast cell line from an NPC patient; assay: Relative lysosomal volume via LysoTracker, NPC fibroblasts; assay type: cell-based, human; details: 1 mM
Experimental: A fibroblast cell line from an NPC patient was treated for 3 days with N-acetyl-DL-leucine (1 mM) and relative lysosomal volume was quantified via LysoTracker, a fluorescent dye that accumulates in acidic organelles. Increased LysoTracker fluorescence is indicative of an increase in lysosomal size and/or number, and is a hallmark of NPC cells.

SCA 28 patient = assay: Case study, spinocerebellar ataxia 28 (SCA 28); assay type: in vivo, human
Experimental: A gait analysis was performed before treatment commenced. After about one month of treatment, medication was stopped and the patient was evaluated. […] The patient reported that they no longer walked like a robot and could climb the stairs without using the banisters.

[3] = test system: restless leg syndrome patients; assay: Case studies, restless legs syndrome (IRLS score); assay type: in vivo, human; parameters: key to IRLS: IRLS 0 (no symptoms) to 40; >30 very severe, ≤10 mild
Excerpt: A widely reported rating scale known as the International Restless Leg Syndrome Study Group Rating Scale (“IRLS”) was developed by the International Restless Legs Syndrome Study Group (“IRLSSG”) (http://www.irlssg.org/) (Walters et al., Validation of the International Restless Legs Syndrome Study Group rating scale for restless legs syndrome. Sleep medicine. 2003 Apr. 1; 4(2):121-32). The IRLS is a 10-item scale with scores ranging from 0 (no symptoms) to 40. Scores >30 are considered very severe, severe (Score 21-30), moderate (scores 11-20) and ≤10, mild. Use of the scale is common for clinical assessment, research and therapeutic trials with RLS. In one embodiment, treatment with leucine, acetyl-leucine, or a pharmaceutically acceptable salt thereof as described herein decreases the subject's International Restless Leg Syndrome Study Group Rating Scale (“IRLS”) compared to a baseline. In one embodiment, the IRLS is reduced compared to baseline by at least 10%, at least 20%, at least 30%, at least 40%, or at least 50%. In one embodiment, the IRLS is reduced by at least 60%, at least 70%, at least 80%, at least 90%, or 100%.
The patient in this case study was a person showing proximal weakness of the so lower limb. […] Upon consultation, they reported no sensory symptoms but complained of a restless leg syndrome at night and during resting periods of the day, occurring over the course of the last two years. Pre-treatment with dopamine agonist were without symptom relief. Serum creatine kinase activity was only mildly elevated at up to 400 IU/L. The patient was evaluated using the RLS diagnostic index (RLS-DI) (see Walters et al., Sleep Med 2003; 4(2):121-132;). The patient's International Restless Legs Syndrome Rating Scale score (IRLS) was 36, and thus a severe RLS was diagnosed. […] Re-introduction of the treatment re-declined the score to 8 after 2 weeks. Continuation of treatment over more than 22 weeks stabilized the IRLS score at 8.
The patient in this case study was a person showing proximal weakness of the lower limb. […] Upon consultation, they reported no sensory symptoms but complained of a restless leg syndrome at night and during resting periods of the day, occurring over the course of the last eight years. […] Serum creatine kinase activity was mildly elevated at 300 IU/L. Iron measurements and all additional lab investigations were normal. The patient was evaluated using the RLS-DI and the patient's IRLS was 32, and thus a moderate to severe RLS was diagnosed. […] Continuation of treatment over more than 28 weeks stabilized the IRLS score at 8.
The patient in this case study was a person showing mild proximal weakness of the upper and lower limbs slowly progressive. The patient had been diagnosed (genetically confirmed) with McArdle myopathy about 16 years ago. Upon consultation, they reported no sensory symptoms but complained about a severe fatigue and reduced stamina. The patient further reported a restless leg syndrome at night and during resting periods of the day, occurring over the course of the last 12 years. […] Serum creatine kinase activity was mildly elevated at 200 IU/L; however, the patient had 5 episodes of rhabdomyolysis during the past 20 years. Repeated iron measurements and all additional lab investigations were normal. The patient was evaluated using the RLS-DI and the patient's IRLS was 34, and thus a severe RLS was diagnosed. […] Continuation of treatment over more than 30 weeks stabilized the IRLS score at 10. In addition, the patient's fatigue declined (Fatigue Severit Scale: 9 (minimum) to 63 (maximum)) from 53 to 28.

Npc1−/− mouse = assay: Lifespan and symptom onset of Npc1−/− mouse; assay type: in vivo
Excerpt: Separate groups of Npc1^−/− and Npc1^+/+ mice were left untreated, as controls.

[4] = test system: Hexb−/− mouse (Sandhoff disease model); assay: Bar crossing test, Sandhoff mouse; assay type: in vivo; details: 0.1 g/kg body weight from 3 weeks of age
Excerpt: The bar crossing test is a method for assessing motor function in mice in which the mouse is placed hanging from the centre of a horizontal bar by its front limbs. A wild-type mouse with normal motor function will be able to engage its hind limbs and thereby move to one of the platforms at either end of the bar, and in doing so complete the test. An untreated Sandhoff mouse is able to complete the test up until around 11 weeks of age. After this point motor function and hind-limb mobility/engagement have deteriorated to the point to which the mouse cannot complete the test, and will drop from the bar onto the padded surface below. […] In FIG. 7 B, acetyl-leucine treatment of 0.1 g/kg body weight was provided from 3 weeks of age. The acetyl-leucine treated Sandhoff mice retained the ability to complete the test up to 13 weeks of age (inclusive). Data shown is the mean of 6 mice per group. […]

CC(=O)NC(CC(C)C)C(=O)O (racemic) [acetyl-DL-leucine]
Ataxia in one-month study involving 12 patients [1]: symptomatic improvement of ataxia
LysoTracker fluorescence (lysosomal volume) ([2]; fibroblasts from NPC patient of mild clinical severity): significant decrease in LysoTracker fluorescence
LysoTracker fluorescence (lysosomal volume) ([2]; fibroblasts from additional NPC patients of variable clinical severity, 72 hours): replicated
Clinical observation (SCA 28 patient; 5 g per day, after about one month): improvement of the symptomatology
Coefficient of variation (temporal) (SCA 28 patient; after treatment for one month, before 4.1): 2.1
Track width (SCA 28 patient; after treatment for one month, before 14.5): 11.7 cm
Functional Gait Assessment (SCA 28 patient; after treatment for one month, before 24/30): 23/30
Double stance (SCA 28 patient; after treatment for one month, before 24.9): 23.8%
cadence (SCA 28 patient; after treatment for one month, before 100): 105 steps/minute
Self-chosen speed (SCA 28 patient; after treatment for one month, before 101): 118 cm/s
Step cycle length (SCA 28 patient; after treatment for one month, before 122): 135 cm
Maximum speed (SCA 28 patient; after treatment for one month, before 188): 201 cm/s
IRLS ([3]; RLS Patient 1 (myotonic dystrophy type 2), 5 g per day, within 14 days, before 36): 26
IRLS ([3]; RLS Patient 1, 2 weeks after re-introduction of the treatment): 8
IRLS ([3]; RLS Patient 1, after another 5 weeks): 9
IRLS ([3]; RLS Patient 1, continuation of treatment over more than 22 weeks): 8
IRLS ([3]; RLS Patient 1, interruption of 4 weeks after week 12 of the treatment): 28
IRLS ([3]; RLS Patient 2 (myotonic dystrophy type 2), 5 g per day, within 14 days, before 32): 22
IRLS ([3]; RLS Patient 2, after another 5 weeks): 7
IRLS ([3]; RLS Patient 2, continuation of treatment over more than 28 weeks): 8
IRLS ([3]; RLS Patient 3 (McArdle myopathy), 5 g per day, within 21 days, before 34): 20
IRLS ([3]; RLS Patient 3, after another 10 weeks): 10
IRLS ([3]; RLS Patient 3, continuation of treatment over more than 30 weeks): 10
Fatigue Severit Scale ([3]; RLS Patient 3, scale 9 (minimum) to 63 (maximum), declined from 53): 28
Delay of discernible indication of disease vs untreated Npc1−/− mice (Npc1−/− mouse; Npc1−/− mice treated from weaning): two
Lifespan (Npc1−/− mouse; Npc1−/− mouse, 0.1 g/kg from 3 weeks of age): statistically significant increase in lifespan
Age up to which ability to complete the bar crossing test was retained ([4]; Sandhoff mice, untreated around 11 weeks): up to 13 weeks of age
Motor function in bar-crossing test ([4]; Sandhoff mouse model): improved motor function and hind-limb mobility/engagement
